Measurements as given in patent US12016335B2, “Stabilized low-concentration metsulfuron-methyl liquid composition” (FMC CORPORATION, priority 2013, dated 2024).

Assay: Chemical stability of metsulfuron-methyl and thifensulfuron-methyl during aging of compositions at 40° C. (HPLC)
Assay type: physicochemical
Procedure: When prepared, the compositions were analyzed by HPLC for metsulfuron-methyl and thifensulfuron-methyl content. The stability of metsulfuron-methyl and thifensulfuron-methyl in the compositions prepared was then determined by aging samples in ovens at 40° C. for 4 and 8 weeks. Storage at 40° C. at 8 weeks simulates two-year storage at ambient temperature. Control samples were stored in a freezer at −6° C. […] At the end of the allotted times, samples were removed from the ovens and analyzed by HPLC for metsulfuron-methyl or thifensulfuron-methyl content. The relative chemical stability was calculated by dividing the assay of the oven-aged sample by that of the control sample analyzed on the same day.

For `COC(=O)c1sccc1S(=O)(=O)NC(=O)Nc1nc(C)nc(OC)n1` [thifensulfuron-methyl, methyl 3-[[[[(4-methoxy-6-methyl-1,3,5-triazin-2-yl)amino]carbonyl]amino]-sulfonyl]-2-thiophenecarboxylate], the “stability of the thifensulfuron-methyl component itself” value was “excellent stability”.
